Test results: paper PMC11532403 (Signal Transduction and Targeted Therapy, 2024)
Where two headings read alike, the source gives them in different places.

Key:
CYP2C19 = molecular target: T1, CYP2C19 (Homo sapiens, UniProt P33261); assay: CYP inhibition in human liver microsomes; type: in vitro ADME; conditions: 0.5-25 μM
T1 construct: substrates of different CYP450 enzymes in mixed human liver microsomes; from tissue; host or cells: mixed human liver microsomes

[1] = Plasma protein binding, rapid equilibrium dialysis; type: in vitro ADME; conditions: dog, read-out: Plasma protein binding rate (converted)
CYP3A4 = molecular target: T2, CYP3A4 (Homo sapiens, UniProt P08684); assay: CYP inhibition in human liver microsomes; type: in vitro ADME; conditions: mixed human liver microsomes, 0.5-25 μM
T2 construct: substrates of different CYP450 enzymes in mixed human liver microsomes; from tissue; host or cells: mixed human liver microsomes
T2 sequence (P08684 whole entry): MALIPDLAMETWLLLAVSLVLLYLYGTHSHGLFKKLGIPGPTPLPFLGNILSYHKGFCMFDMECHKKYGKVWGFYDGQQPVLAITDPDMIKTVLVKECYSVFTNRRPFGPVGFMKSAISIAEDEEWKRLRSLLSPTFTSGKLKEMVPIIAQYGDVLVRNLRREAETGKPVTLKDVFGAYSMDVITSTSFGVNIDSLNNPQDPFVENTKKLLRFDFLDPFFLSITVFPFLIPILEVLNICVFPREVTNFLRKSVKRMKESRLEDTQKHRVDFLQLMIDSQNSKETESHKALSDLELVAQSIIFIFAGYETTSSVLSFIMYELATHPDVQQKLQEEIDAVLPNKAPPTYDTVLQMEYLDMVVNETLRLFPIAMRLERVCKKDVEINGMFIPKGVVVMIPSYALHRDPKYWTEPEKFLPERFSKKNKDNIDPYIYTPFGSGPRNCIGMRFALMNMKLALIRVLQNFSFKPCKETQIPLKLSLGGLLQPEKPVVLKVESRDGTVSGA

[2] = Pharmacokinetics in beagles; type: in vivo; conditions: both sexes, beagle, dog, plasma, po
From the text: Absorption and elimination in the body may both gradually tend towards saturation. In addition, there was no statistically significant difference in plasma pharmacokinetic parameters between female and male beagles administered SY-5007 by gavage alone.

preclinical animals = assay: Preclinical animal long term (repeat-dose) toxicity tests, species not stated; type: in vivo
CYP2C9 = molecular target: T3, CYP2C9 (Homo sapiens, UniProt P11712); assay: CYP inhibition in human liver microsomes; type: in vitro ADME; conditions: 0.5-25 μM
T3 construct: substrates of different CYP450 enzymes in mixed human liver microsomes; from tissue; host or cells: mixed human liver microsomes
T3 sequence (P11712 whole entry): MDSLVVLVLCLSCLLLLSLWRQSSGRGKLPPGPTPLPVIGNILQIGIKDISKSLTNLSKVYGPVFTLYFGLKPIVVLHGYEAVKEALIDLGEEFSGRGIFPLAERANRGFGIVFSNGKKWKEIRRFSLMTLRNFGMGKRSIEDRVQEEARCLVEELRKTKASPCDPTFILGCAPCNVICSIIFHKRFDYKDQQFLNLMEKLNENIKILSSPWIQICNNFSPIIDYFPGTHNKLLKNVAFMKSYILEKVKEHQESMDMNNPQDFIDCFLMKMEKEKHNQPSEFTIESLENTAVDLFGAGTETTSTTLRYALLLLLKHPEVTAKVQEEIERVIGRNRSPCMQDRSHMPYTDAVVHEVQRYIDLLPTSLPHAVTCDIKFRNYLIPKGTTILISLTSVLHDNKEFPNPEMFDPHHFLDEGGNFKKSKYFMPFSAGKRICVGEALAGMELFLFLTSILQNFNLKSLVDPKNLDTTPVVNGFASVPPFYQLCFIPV

[3] = test system: Baf3-CCDC6-RET^WT xenograft; assay: Tumor xenograft model; type: in vivo, BALB/c nude mice
Experimental: (§1) All procedures relating to animal handling, care, and treatment were performed according to the Beijing Laboratory Animal Management Regulations. 6-week-old male BALB/c nude mice were inoculated subcutaneously into the flank with Baf3-CCDC6-RET^WT (5*10^6 cells/ 0.1 mL/ each), Baf3-CCDC6-RET^M918T (5*10^6 cells/0.1 mL/each), Baf3-CCDC6-RET^V804M (5*10^6 cells/ 0.1 mL/ each), or HEK293T-KIF5B-RET^V804M (5*10^6 cells/ 0.1 mL/ each). Mice were randomized by tumor size into groups of 10 to 12 when tumor volume reached approximately 100-150 mm^3. […] Tumor size and body weight were measured two times each week, and tumor volume was calculated with the following formula: [length × (width)^2]/ 2. Statistical significance was calculated by using two-way ANOVA test to assess the difference in tumor volumes between the control (vehicle-treated) and treatment groups.

[4] = test system: Baf3-CCDC6-RET^V804M xenograft; assay: Tumor xenograft model; type: in vivo, BALB/c nude mice; conditions: 9 days
Experimental: as §1

[5] = test system: HEK293T-KIF5B-RET^V804M xenograft; assay: Tumor xenograft model; type: in vivo, BALB/c nude mice; conditions: 14 days
Experimental: as §1

[6] = test system: Baf3-CCDC6-RET^M918T xenograft; assay: Tumor xenograft model; type: in vivo, BALB/c nude mice; conditions: 9 days
Experimental: as §1

[7] = Pharmacokinetics in beagles; type: in vivo; conditions: both sexes, beagle, dog, plasma, iv, 1 mg/kg i.v.
[8] = test system: RET phosphorylation in BaF3-CCDC6-RET^WT cells; assay: RET signaling pathway phosphorylation in cells; type: cell-based
[9] = Plasma protein binding, rapid equilibrium dialysis; type: in vitro ADME; conditions: mouse, read-out: Plasma protein binding rate
beagles = assay: 28-day repeat-dose toxicity; type: in vivo
CYP1A2 = assay: CYP induction in hepatocytes; type: in vitro ADME, human; conditions: 1, 5, 50 μM, three donors
[10] = test system: HEK293T-KIF5B-RET M918T cells; assay: Proliferation assay (CellTiter-Glo); type: cell-based; conditions: Homo sapiens, read-out: Cellular Viability IC50
Experimental: The cell lines HEK293T, Baf3, TT cell and NIH-3T3 were obtained from the Cell Resource Center, Peking Union Medical College (PCRC). HEK293T and NIH-3T3 were maintained in DMEM high glucose medium (#C3113-0500, Vivacell) supplemented with 10 % FBS (#10500064, Gibco) and 1 % Penicillin-Streptomycin (#15140122, Gibco). The murine Pro‐B cell line Baf3 was cultured in RPMI 1640 medium (#C3010, Vivacell) supplemented with 10 % FBS, 1 % Penicillin-Streptomycin and 1 ng/mL recombinant murine interleukin-3 (#213-13, PeproTech). All stably transformed BaF3 cells were cultured in RPMI 1640 without IL‐3. The TT MTC cell was grown in Ham's F-12K medium (#21127022, Gibco) supplemented with 10 % FBS and 1 % Penicillin-Streptomycin. Cells were cultured at 37 °C under 5 % CO2 and high humidity conditions.
KIF5B-RET, CCDC6-RET and mutations were cloned into pCDHL vector and were verified by sequencing. Reah RET expression vectors were separately co‐transfected with psPAX2 and pMD2.G packaging plasmids into 60-70% confluent HEK 293T cells maintained in 2 mL of culture medium in six‐well plates using Polyethyleneimine (PEI) transfection grade. Virus containing media was harvested after 48 h and filtered with 0.45 μm membrane and stored at -80 °C prior to infection. For infection of Ba/F3 cells, 1 mL of viral supernatant and 8 μg/mL polybrene were added to 5 million cells per well in six‐well plates. Infected cells were selected with the addition of 1 μg/mL puromycin for 2 weeks in RPMI-1640/ 10% FBS/ 1 ng/mL IL-3 medium. Subsquently, puromycin-resistant cells were cultured in IL-3-free medium for 1 week and RET fusion proteins were confirmed by immunoblot analysis.
Cell viability was assessed by luminescence using CellTiter-Glo 2.0 assay (Promega). IC50 curve fitting was performed using GraphPad Prism 9.0.

[11] = high-dose study, 10 mg/kg (so in the source)

T1 sequence (P33261 whole entry): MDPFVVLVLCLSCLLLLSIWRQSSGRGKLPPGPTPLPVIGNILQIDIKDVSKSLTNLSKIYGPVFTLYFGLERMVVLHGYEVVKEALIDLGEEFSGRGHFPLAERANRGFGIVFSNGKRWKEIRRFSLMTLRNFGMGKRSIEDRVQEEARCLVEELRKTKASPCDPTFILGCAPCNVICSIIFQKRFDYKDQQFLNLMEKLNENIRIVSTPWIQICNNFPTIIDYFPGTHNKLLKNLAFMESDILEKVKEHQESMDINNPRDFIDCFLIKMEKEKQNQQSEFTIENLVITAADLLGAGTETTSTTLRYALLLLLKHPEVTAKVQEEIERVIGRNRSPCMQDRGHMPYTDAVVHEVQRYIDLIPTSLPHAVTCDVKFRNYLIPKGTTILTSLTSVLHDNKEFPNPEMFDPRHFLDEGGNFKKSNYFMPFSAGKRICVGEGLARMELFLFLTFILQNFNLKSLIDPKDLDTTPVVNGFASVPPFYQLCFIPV

Structure (SMILES): COc1ccc(CN2C3CC2CN(c2ccc(-c4cc(N5CC(C)(O)C5)cn5ncc(C#N)c45)cn2)C3)cn1 [SY-5007, 6-(3-hydroxy-3-methylazetidin-1-yl)-4-(6-(6-((6-methoxypyridin-3-yl)methyl)-3,6-diazabicyclo[3.1.1]heptan-3-yl)pyridin-3-yl)pyrazolo[1,5-a]pyridine-3-carbonitrile]
- IC50 (CYP2C19): > 25 µM
- fraction unbound [1]: 0.042
- IC50 (CYP3A4): 18 µM
- bioavailability ([2]; 2.5 mg/kg): 56.6%
- bioavailability ([2]; 5 mg/kg): 74.1%
- bioavailability ([2]; 10 mg/kg): 33.9%
- AUC(0-inf) ([2]; gavage 2.5 mg/kg): 3760 ng·h/mL
- Cmax ([2]; gavage 2.5 mg/kg): 758 ng/mL
- AUC(0-inf) ([2]; gavage 5 mg/kg): 9850 ng·h/mL
- Cmax ([2]; gavage 5 mg/kg): 1630 ng/mL
- AUC(0-inf) ([2]; gavage 10 mg/kg): 9030 ng·h/mL
- Cmax ([2]; gavage 10 mg/kg): 1440 ng/mL
- Tmax ([2]; gavage 2.5, 5, 10 mg/kg): 0.5 to 2 h
- half-life ([2]; gavage 2.5-10 mg/kg): 4.81 to 7.53 h
- MRT inf ([2]; gavage 2.5-10 mg/kg, read-out: MRTINF_obs): 5.75 to 11.4 h
- Liver and gallbladder toxicity (preclinical animals; preclinical animal long term toxicity tests): ? Provision is made for the toxicity to the liver and gallbladder found in preclinical animal long term toxicity tests, and for adverse events associated with drugs with a similar mechanism of action to this product.
- Reproductive toxicity (reproductive tissue weight) (preclinical animals; preclinical long toxicity experiments): ? Preclinical long toxicity experiments observed a weight reduction in reproductive tissue, so relevant regulations are made.
- IC50 (CYP2C9): 6.68 µM
- TGI ([3]; 3 mg/kg twice daily, 13 days): 59.2%
- TGI ([3]; 6 mg/kg twice daily, 13 days): 80.1%
- TGI ([3]; 12 mg/kg twice daily, 13 days): 93.5%
- TGI [3, 11]: 112%
- Tumor regression rate (REG) [3, 11]: 97.3%
- TGI ([3]; high-dose study, 20 mg/kg): 107%
- Tumor regression rate (REG) ([3]; high-dose study, 20 mg/kg): 57.7%
- Tumor regression rate (REG) ([3]; high-dose study, 40 mg/kg (so in the source)): 0%
- TGI ([4]; 10 mg/kg oral): 35.4%
- TGI ([4]; 20 mg/kg oral): 85.3%
- TGI ([4]; 40 mg/kg oral): 109%
- TGI ([5]; 10 mg/kg twice daily): 40.7%
- TGI ([5]; 20 mg/kg twice daily): 70.3%
- TGI ([5]; 40 mg/kg twice daily): 94.1%
- TGI ([6]; 10 mg/kg oral): 12.4%
- TGI ([6]; 20 mg/kg oral): 40.9%
- TGI ([6]; 40 mg/kg oral): 93.0%
- clearance [7]: 6.63 mL/min/kg
- half-life [7]: 3.27 h
- Vd ([7]; read-out: Vss): 1.43 L/kg
- Concentration at which effect reaches saturation [8]: 10 nM
- Concentration significantly inhibiting RET phosphorylation [8]: 1 nM
- fraction unbound [9]: 0.01
- HNSTD (beagles; female Beagle, GLP long toxicity study): 8 mg/kg
- HNSTD (beagles; females, 28 days): 8 mg/kg
- HNSTD (beagles; male Beagle, GLP long toxicity study): 4 mg/kg
- HNSTD (beagles; males, 28 days): 4 mg/kg
- Bleeding tendency: gastric mucosa and ileum findings (beagles; preclinical Beagle dogs, repeated dosing): ? This drug was found to have gastric mucosal reddening and ileal discolouration in preclinical SD rats and Beagle dogs in repeated dosing tests, so the relevant provisions were made.
- Electrolyte abnormalities (blood PK) (beagles; preclinical Beagle repeated administration): ? Abnormalities such as blood PK were found in the preclinical SD rat and Beagle repeated administration test of this product, and the relevant regulations were carried out in consideration of the fact that similar mechanism of action drugs have been reported.
- CYP1A2 induction (CYP1A2): no induction
- IC50 [10]: 0.057 µM
